Assay results as given in US20240409536A1, “COMPOUNDS AND METHODS FOR MODULATING SPLICING” (REMIX THERAPEUTICS INC., priority 2021, published 2024).

Assays:
SMN2 mRNA = experiment: Gene panel canonical junction qPCR assay, SMN2 CJ mRNA decrease; type: cell-based, human; settings: Homo sapiens, canonical junction qPCR, read-out: SMN2 IC50 (decrease in CJ mRNA levels)
Outline: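 A673 or K562 cells treated with compound; canonical exon-exon junction mRNA quantified by cDNA synthesis and RT-qPCR with junction-spanning primer/probe, normalized to GAPDH, GUSB or PPIA and DMSO (2^(−ΔΔCt)). Percent response from set ΔCt assay windows fitted to 4-parameter logistic; IC50 for CJ decrease.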

K562 cells = experiment: Cell Titer Glo 2.0 cell viability assay in K562 cells; settings: 72 hours
HiBiT-tagged HTT protein = experiment: HiBiT protein abundance assay, HTT (K562 HiBiT knock-in cells); type: cell-based, human; settings: 24 hours
Outline: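 K562 cells with endogenous HiBiT knock-in tag, 10-point 3-fold dilutions (top 10 μM final, ≤0.25% DMSO), 24 h at 37 °C. Lytic Nano-Glo HiBiT luminescence, normalized to DMSO and unmodified K562 baselines; IC50 is concentration giving 50% protein abundance from four-parameter fit.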

Row | IC50 (SMN2 mRNA) | IC50 (HiBiT-tagged HTT protein) | SMILES | Viability (K562 cells)
1 | < 100 nM | 1000 to 10000 nM | Cc1cn2cc(NC(=O)c3ccc(N4CCN(CCO)C5(CC5)C4)c4nccnc34)cc(F)c2n1 [Compound 369] | C (C represents 1000-9999 nM)
2 | 100 to 1000 nM | > 10000 nM | Cc1ccc2cc(NC(=O)c3ccc(N4C[C@@H](C)N[C@@H](C)C4)c4nccnc34)cc(F)c2n1 [Compound 353] | C (C represents 1000-9999 nM)
3 | < 100 nM | 100 to 1000 nM | Cc1cn2cc(NC(=O)c3ccc(N4CCN(C)C5(CC5)C4)c4nccnc34)cc(F)c2n1 [Compound 364] | B (B represents 100-1000 nM)
4 | 1000 to 10000 nM | > 10000 nM | COc1nc(NC(=O)c2ccc(N3C[C@@H](C)N[C@@H](C)C3)c3nccnc23)nc2cn(C)nc12 [Compound 287] | D (D represents greater than 10 μM in K562 cells)
5 | 100 to 1000 nM | > 10000 nM | CNc1nc(NC(=O)c2ccc(N3C[C@@H](C)N[C@@H](C)C3)c3nccnc23)cn2cc(C)nc12 [Compound 308] | C (C represents 1000-9999 nM)
6 | < 100 nM | 1000 to 10000 nM | Cc1cn2cc(NC(=O)c3ccc(N4C[C@@H](C)N[C@@H](C)C4)c4nccnc34)nc(C)c2n1 [Compound 288] | C (C represents 1000-9999 nM)
7 | < 100 nM | 1000 to 10000 nM | Cc1cn2cc(NC(=O)c3c(F)cc(N4C[C@@H](C)N[C@@H](C)C4)c4nccnc34)cc(F)c2n1 [Compound 261, cis-8-[(3R,5S)-3,5-dimethylpiperazin-1-yl]-6-fluoro-N-{8-fluoro-2-methylimidazo[1,2-a]pyridin-6-yl}quinoxaline-5-carboxamide] | B (B represents 100-1000 nM)
8 | < 100 nM | 100 to 1000 nM | COc1cnc2c(N3CC[C@@H](N(C)C)C3)ccc(C(=O)Nc3cc(F)c4nc(C)cn4c3)c2n1 [Compound 244, 8-[(3R)-3-(dimethylamino)pyrrolidin-1-yl]-N-{8-fluoro-2-methylimidazo[1,2-a]pyridin-6-yl}-3-methoxyquinoxaline-5-carboxamide] | A (A represents <100 nM)
9 | 100 to 1000 nM | 1000 to 10000 nM | Cc1cn2cc(NC(=O)c3ccc(N4CCC(N)(CF)CC4)c4nccnc34)cc(F)c2n1 [Compound 356] | C (C represents 1000-9999 nM)
10 | 100 to 1000 nM | 1000 to 10000 nM | C[C@@H]1CN(c2ccc(C(=O)Nc3cc(F)c4cnccc4c3)c3nccnc23)C[C@H](C)N1 [Compound 343] | C (C represents 1000-9999 nM)
11 | < 100 nM | 100 to 1000 nM | CCN1CCN(c2ccc(C(=O)Nc3cc(F)c4nc(C)cn4c3)c3nccnc23)CC12CC2 [Compound 365] | B (B represents 100-1000 nM)
12 | 1000 to 10000 nM | > 10000 nM | C[C@@H]1CN(c2ccc(C(=O)Nc3cc(F)c4nc(O)cn4c3)c3nccnc23)C[C@H](C)N1 [Compound 360] | D (D represents greater than 10 μM in K562 cells)
13 | < 100 nM | 100 to 1000 nM | CN[C@@H]1CCN(c2ccc(C(=O)Nc3cc(F)c4nc(C)cn4c3)c3nnccc23)C1 [Compound 238, (R)—N-(8-fluoro-2-methylimidazo[1,2-a]pyridin-6-yl)-5-(3-(methylamino)pyrrolidin-1-yl)cinnoline-8-carboxamide] | B (B represents 100-1000 nM)
14 | > 10000 nM | > 10000 nM | Cn1cc2c(F)cc(NC(=O)c3ccc(N4CCNCC4)c4ccnnc34)cc2n1 [Compound 116] | C (C represents 1000-9999 nM)
15 | > 10000 nM | > 10000 nM | Cc1cn2cc(NC(=O)c3ccc(N4C[C@@H](C)N[C@@H](C)C4)c4ncccc34)cc(F)c2n1 [Compound 358] | D (D represents greater than 10 μM in K562 cells)
16 | < 100 nM | 1000 to 10000 nM | Cc1cn2cc(NC(=O)c3ccc([C@@]45CCNCC4C5)c4nccnc34)cc(F)c2n1 (stereo in doubt) [Compound 248, 8-{3-azabicyclo[4.1.0]heptan-6-yl}-N-{8-fluoro-2-methylimidazo[1,2-a]pyridin-6-yl}quinoxaline-5-carboxamide 2,2,2-trifluoroacetate] | B (B represents 100-1000 nM)
17 | < 100 nM | > 10000 nM | Cc1cn2cc(NC(=O)c3ccc(N4C[C@@H](C)N[C@@H](C)C4)c4nccnc34)nc2c(C)n1 [Compound 359] | B (B represents 100-1000 nM)
18 | < 100 nM | 1000 to 10000 nM | Cc1cn2cc(NC(=O)c3ccc(N4CCN[C@@H](C5CC5)C4)c4nccnc34)cc(F)c2n1 [Compound 252, 8-[(3S)-3-cyclopropylpiperazin-1-yl]-N-{8-fluoro-2-methylimidazo[1,2-a]pyridin-6-yl}quinoxaline-5-carboxamide] | B (B represents 100-1000 nM)
19 | < 100 nM | 1000 to 10000 nM | COc1ccc2c(N3C[C@@H](C)N[C@@H](C)C3)ccc(C(=O)Nc3cc(F)c4nc(C)cn4c3)c2n1 [Compound 268, 5-[(3R,5S)-3,5-dimethylpiperazin-1-yl]-N-{8-fluoro-2-methylimidazo[1,2-a]pyridin-6-yl}-2-methoxyquinoline-8-carboxamide] | B (B represents 100-1000 nM)
20 | < 100 nM | 1000 to 10000 nM | Cc1cn2cc(NC(=O)c3ccc(N4CCNCC4)c4ccnnc34)c(C)cc2n1 [Compound 119] | B (B represents 100-1000 nM)
21 | < 100 nM | > 10000 nM | Cc1cn2cc(NC(=O)c3ccc(N4C[C@@H](C)N[C@@H](C)C4)c4nccnc34)cc(C#N)c2n1 [Compound 294] | D (D represents greater than 10 μM in K562 cells)
22 | < 100 nM | 1000 to 10000 nM | COc1nc2c(N3C[C@@H](C)N[C@@H](C)C3)ccc(C(=O)Nc3cc(F)c4nc(C)cn4c3)c2nc1C [Compound 260, 8-((3R,5S)-3,5-dimethylpiperazin-1-yl)-N-(8-fluoro-2-methylimidazo[1,2-a]pyridin-6-yl)-2-methoxy-3-methylquinoxaline-5-carboxamide; 2,2,2-trifluoroacetate] | C (C represents 1000-9999 nM)
23 | 1000 to 10000 nM | > 10000 nM | COc1nc2ccc(NC(=O)c3ccc(N4C[C@@H](C)N[C@@H](C)C4)c4nccnc34)cc2o1 [Compound 292] | D (D represents greater than 10 μM in K562 cells)
24 | < 100 nM | > 10000 nM | Cc1c(O)c(NC(=O)c2ccc(N3C[C@@H](C)N[C@@H](C)C3)c3nccnc23)cc2cn(C)nc12 [Compound 310] | C (C represents 1000-9999 nM)
25 | < 100 nM | 100 to 1000 nM | Cc1nc2c(F)cc(NC(=O)c3ccc(N4CCNCC4)c4ccnnc34)cc2s1 [Compound 118] | A (A represents <100 nM)
